Assay results from patent US20120192315A1, “RESISTANCE GENES AND PROTEINS ACTIVE AGAINST FUSARIUM ROOT ROTS, CYST NEMATODES AND SOYBEAN SUDDEN DEATH SYNDROME AND METHODS EMPLOYING SAME” (Southern Illinois University Carbondale, priority 2011, published 2012).
Entries after “also recorded” stand apart in the source; their conditions may differ. Where two headings read alike, the source gives them in different places. Where no end group is shown, it is not given here.

T1: purified GmRLK18-1 LRR domain (6x his-RHG1) (Glycine max)
T1 chain: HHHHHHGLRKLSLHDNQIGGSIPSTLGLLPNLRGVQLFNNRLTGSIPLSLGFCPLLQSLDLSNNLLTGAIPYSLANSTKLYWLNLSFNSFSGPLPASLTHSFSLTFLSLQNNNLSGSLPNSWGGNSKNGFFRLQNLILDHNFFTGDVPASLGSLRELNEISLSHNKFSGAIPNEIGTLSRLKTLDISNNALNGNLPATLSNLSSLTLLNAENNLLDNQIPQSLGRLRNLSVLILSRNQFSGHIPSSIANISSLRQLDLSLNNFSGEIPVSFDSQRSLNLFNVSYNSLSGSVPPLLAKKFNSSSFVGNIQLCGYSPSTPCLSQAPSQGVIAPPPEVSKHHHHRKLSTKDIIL

B1: peptide 2 (GmNIC1, LjCLE-R2 and LjCLE-R1) (peptide)
peptide: RLAPGGPDPQHN
modifications: not checked
B2: peptide 30 (GmCLE30, GmRIC1) (peptide)
peptide: RLAPEGPDPHHN
modifications: not checked
B3: peptide L (GmLRR, GmRLK18-1) (peptide)
peptide: CTLSRLKTLDISNNALNGNLPATLSNLS
modifications: not checked
B4: peptide 36 (GmCLE34, AtCLE36, MtCLE36) (peptide)
peptide: SKRRVPNGPDPIHNR
modifications: not checked
B5: peptide 3 (GmCLE3, AtCLE3, AtClv3 unmodified) (peptide)
peptide: RTVPSGPDPLHH
modifications: not checked
B6: peptide 2L (GmNIC1, LjCLE-R2 and LjCLE-R1) (peptide)
peptide: DLPLAPADRLAPGGPDPQHNVRAPPRKP
modifications: not checked
B7: peptide T (GmTDIF, ZeTDIF) (peptide)
peptide: AHEVPSGPNPISNR
modifications: not checked
B8: peptide 3L (GmCLE3, AtCLE3, AtClv3 unmodified) (peptide)
peptide: KGLGLHEELRTVPSGPDPLHHHVNPPRQPR
modifications: not checked
B9: peptide N (HgCLV3) (peptide)
peptide: KRLSPSGPDPHHH
modifications: not checked
B10: peptide 36L (GmCLE34, AtCLE36, MtCLE36) (peptide)
peptide: RAELDFNYMSKRRVPNGPDPIHNRRAGNSGR
modifications: not checked

Legend:
[1] = target: GmRLK18-1 LRR domain (RHG1); experiment: Binding of CLE like peptides to purified LRR domain of the RLK at rhg1/Rfs2, titration by luminescence spectrometry; design: species or system Glycine max
Description: (§1) The full length rhg1/Rfs2 or Rhg4 cDNA from the SCN resistant cultivar, ‘Forrest’ (Bruker et al. 2005), was sub-cloned in pGEM-T vector. For the rhg1/Rfs2 LRR DNA was PCR amplified using internal primers. Primers were designed to copy and amplify a 1032 bp region encompassing the 10 LRRs of rhg1. The sense primer 141-485F: 5′-[…]-3′ contained an eight base linker followed by an NcoI restriction site (in bold) to allow in-frame cloning into the expression vector pET30A (+). A factor Xa site (underlined) was incorporated in the sense primer in order to cleave the fusion protein. The anti-sense primer 141-485R: 5′-[…]-3′ contained a six base linker followed by an XhoI restriction site (in bold). The stop codon (underlined) was added to the primer sequence to terminate the RHG1 translation. The amplicon obtained by PCR was isolated by agarose gel electrophoresis and purified using gel elution. The amplified fragment was subcloned into pGEMT vector by ligation of the 3′T vector overhang with the 3′A added by Taq polymerase during template amplification. The complementarity between the vector 3′T overhangs and the PCR product 3′A overhangs allowed for direct ligation of PCR products into the vector. pGEMT vector was transformed into DH5a cells, positive colonies were selected and grown overnight in 5 ml of 2-fold YT medium. The recombinant plasmid DNA was purified using the Qiagen mini-prep kit.
About […] of the LRR sub-clone plasmid DNA was digested with NcoI and XhoI. Purified insert was ligated overnight at 16° C. using T4 DNA ligase into a XhoI/NcoI predigested pET30a (+) vector. The ratio of insert DNA to plasmid DNA was 3:1. The construct contained the hexa-his inframe with the Factor Xa vector site and 5′ end of the insert. The recombinant plasmid was transformed into DH5a cells. Positive colonies were selected on 2-fold YT plates supplemented with 50 μg/ml kanamycin and screened by digestion of mini-prep plasmid DNA with NcoI and XhoI followed by agarose gel electrophoresis. The nature of the inserts were also verified by DNA sequence analysis using the ABI 377 DNA sequencer (Foster City, Calif.).
A Quikchange site directed mutagenesis kit (Stratagene) was used for RLSH generation. Both sense and anti-sense primers were designed to loop out the 114 bp nucleotide linker region between the hexa-his tag and the first codon of RLLH. The forward primer DMF1: 5′-[…]-3′ and reverse primer DMR1: 5′-[…]-3′ were complementary in sequence and annealed to opposite stands of DNA. Amplification of template was performed with Pfu-Turbo DNA polymerase. Following amplification, the parent DNA (methylated and hemi-methylated) was digested with DpnI endonuclease (target sequence: 5′-Gm6ATC-3′). The amplified vector DNA containing the desired deletion was transformed into XL1-Blue competent cells and the cells were grown overnight in 2XYT supplemented with 50 μg/ml tetracycline and 50 μg/ml kanamycin. Colonies were picked, grown overnight, DNA purified and inserts identified by digestion of plasmid DNA with NdeI and XhoI followed by 2% (w/v) agarose gel electrophoresis. DNA was subsequently sequenced to verify looping out of the RLLH linker region. DNA from positive clones was transformed into BL21 (DE3-RIL) competent cells.
BL21-CodonPlus™-RIL series of strains contain extra copies of the E. coli argU, ileY, and leuW tRNA genes. The modification allowed for high expression of proteins that were difficult to express in conventional E. coli hosts due to the codon usage bias of the gene of interest. RHG1 protein contained 18 codons rarely used in E. coli in the LRR alone (Table 3.1). The 5 ml of LB overnight culture containing Rhg1/Rfs2 LRR or Rhg4 LRR was transferred to 1 L of M9 minimal media supplemented with ammonium sulfate and kanamycin. The cells were grown at 37° C. to an O.D of 1.0. The protein was induced with 0.4 mM IPTG and incubated at 16° C. in an orbital shaker for 18-20 h. […]

[2] = target: GmRLK8-1 LRR domain (RHG4); experiment: Binding of CLE like peptides to purified LRR domain of the RLK at Rhg4, titration by luminescence spectrometry; design: species or system Glycine max
Description: as §1
BL21-CodonPlus™-RIL series of strains contain extra copies of the E. coli argU, ileY, and leuW tRNA genes. The modification allowed for high expression of proteins that were difficult to express in conventional E. coli hosts due to the codon usage bias of the gene of interest. RHG1 protein contained 18 codons rarely used in E. coli in the LRR alone (Table 3.1). The 5 ml of LB overnight culture containing Rhg1/Rfs2 LRR or Rhg4 LRR was transferred to 1 L of M9 minimal media supplemented with ammonium sulfate and kanamycin. The cells were grown at 37° C. to an O.D of 1.0. The protein was induced with 0.4 mM IPTG and incubated at 16° C. in an orbital shaker for 18-20 h.
Proteins were solubilized from IBs, purified and refolded by the method described by Afzal and Lightfoot 2007, Protein Expression and Purification 53: 346-355. They were produced as in Example 9 and used for Far Western identification of interacting root proteins (FIGS. 4 & 5) and for identification of preferred ligands among small peptides found in root phloem (Table 4).

[3] = Exogenous peptide treatment of plants; type: in vivo; settings: phenotypes: transient wilting, increased plant vigor, increased disease resistance
GmRLK18-1 LRR domain = experiment: Far-Western analysis of soybean root proteins probed with the LRR domain of GmRLK18-1; type: binding, Glycine max; settings: 2D gel of SCN inoculated root proteins of NIL 34-23; MS identification
[4] = target: T1, purified GmRLK18-1 LRR domain (6x …); experiment: fluorescence (luminescence spectrometry) titration of peptide with purified LRR domain, in vitro
[5] = target: GmRLK8-1 LRR domain (from the RLK protein at Rhg4) (Glycine max); experiment: as above
[6] = target: T1, purified GmRLK18-1 LRR domain (6x …); experiment: fluorescence (luminescence spectrometry) titration of peptide with purified LRR domain, in vitro; apparent Kd for dimerization
[7] = purified LRR domain, binding constants calculated from titration experiments, read-out: Kd (nM) RHG4
[8] = purified LRR domain, binding constants calculated from titration experiments, read-out: Kd (nM) RHG1

| Molecule | Kd [2, 7] | Kd [1, 8] | Kd [4] | Kd [5] | further results |
| --- | --- | --- | --- | --- | --- |
| CTLSRLKTLDISNNALNGNLPATLSNLS [L] | 135 nM |  |  |  | Kd ([1]; estimated from the peptide with one diverged LRR motif, read-out: apparent Kd for dimerization): 36 nM |
| RTVPSGPDPLHH [compound 3, RTVPSGPDPLHH] | 50 nM | 29 nM |  |  | binding by the GmRLK18-1 derived LRR peptide, in words ([1]; assays in vitro): strong binding constant |
| DLPLAPADRLAPGGPDPQHNVRAPPRKP [2L] | 338 nM | 142 nM |  |  |  |
| KGLGLHEELRTVPSGPDPLHHHVNPPRQPR [3L] | 142 nM | 65 nM |  |  |  |
| KRLSPSGPDPHHH [N, KRLSPSGPDPHHH] |  | 30 nM |  |  | binding by the GmRLK18-1 derived LRR peptide, in words ([1]; assays in vitro): strong binding constant; effect as exogenous treatment [3]: effective; Kd ([2]; assays in vitro, read-out: affinity, GmRLK8-1 LRR domain): 78 nM |
| RLAPGGPDPQHN [compound 2, RLAPGGPDPQHN] | 96 nM | 45 nM |  |  | binding by the GmRLK8-1 LRR domain protein, in words ([2]; assays in vitro): bound very weakly |
| RLAPEGPDPHHN [compound 30, RLAPEGPDPHHN] | 84 nM | 44 nM |  |  | binding by the GmRLK18-1 derived LRR peptide, in words ([1]; assays in vitro): bound weakly; binding by the GmRLK8-1 LRR domain protein, in words ([2]; assays in vitro): bound very weakly |
| cyclophilin: soybean cyclophilin, GenBank gi 17981611, binds the purified LRR domain |  |  |  |  | binding to the GmRLK18-1 LRR domain in Far-Western (GmRLK18-1 LRR domain): bound strongly; also recorded: interacting partner |
| RAELDFNYMSKRRVPNGPDPIHNRRAGNSGR [36L] | 51 nM | 49 nM |  |  |  |
| AHEVPSGPNPISNR [T, AHEVPSGPNPISNR] | 204 nM |  |  |  | Kd ([1]; assays in vitro, read-out: binding constants, GmRLK18-1-LRR): 20 nM; effect as exogenous treatment [3]: effective; binding by the GmRLK8-1 LRR domain protein, in words ([2]; assays in vitro): bound weakly |
| SKRRVPNGPDPIHNR [compound 36, SKRRVPNGPDPIHNR] | 52 nM | 14 nM |  |  |  |
| B1 |  |  | 45 nM | 96 nM |  |
| B2 |  |  | 44 nM | 84 nM |  |
| B3 |  |  |  | 135 nM | Kd [6]: 36 nM |
| B4 |  |  | 14 nM | 52 nM |  |
| B5 |  |  | 29 nM | 50 nM |  |
| B6 |  |  | 142 nM | 338 nM |  |
| B7 |  |  | 20 nM | 204 nM |  |
| B8 |  |  | 65 nM | 142 nM |  |
| B9 |  |  | 30 nM | 78 nM |  |
| B10 |  |  | 49 nM | 51 nM |  |
